Measured values published in patent US5856334A, “Imidazoquinoline derivatives” (Mochida Pharmaceutical Co., Ltd., priority 1994, dated 1999).
“And” between values parts separate entries of the source, which are not always exact repeats. Equal values may be shown once.

How the values were obtained:
[1] = Experiment on Acute Toxicity (oral, survival until 7th day); parameters: species or system ICR male mice; settings: mouse, in vivo, 1000 mg/kg, peroral, until the 7th day of the administration, read-out: No. of Survivals (converted)
Description: ICR male mice (body weight=ca. 35 g) weighing about 30 g were divided in groups each consisting of one or three animals and administered perorally each of the test compounds as suspended in 5% aqueous gum arabic. The mice were then examined for their survival until the 7th day of the administration.

[2] = test system: intraperitoneal eosinophils; experiment: Activity on Mouse Intraperitoneal Hypereosinophilic Model (Ascaris suum extract sensitization); format: in vivo, BALB/c male mice; settings: peroral, once a day, 10 administrations
Method: BALB/c male mice (body weight=ca. 25 g), divided in groups each consisting of five animals, were sensitized by intraperitoneal injection of physiological saline (0.11 mL) containing 0.1 mg of Ascaris suum extract. Seven days later, the same treatment was conducted; three days later, the animals were bled to death and injected intraperitoneally with 3 mL of physiological saline containing 1% dipotassium ethylenediaminetetraacetate (EDTA) and massaged on the abdominal part for about 30 sec. The abdominal part was incised to collect the intraperitoneal fluid, which was centrifuged at 130×g for 10 min. Fetal bovine serum (500 μl) containing 1% EDTA was added to the pellet to prepare a cell suspension. Part of the cell suspension was smeared on a glass slide with a centrifugal smearing device and subjected to Difquick staining. Thereafter, the total white blood cell (WBC) count and the eosinophil count were taken to determine the percentage of eosinophils in the total WBC. The total number of WBCs in the cell suspension was measured with an automatic hemocytometer. Multiplying the percentage of eosinophils in the total WBC by the total number of WBCs provided the number of eosinophils in the cell suspension. […] The mice neither sensitized nor administered the test compounds (untreated group), as well as the mice that were sensitized but not administered the test compounds (control group) were similarly administered 5% aqueous gum arabic perorally. Inhibition of the Increase in Eosinophils (%)={1-(test compound administered group-untreated group)/(control group-untreated group)}×100

eosinophils in BALF = experiment: Activity on Model for the Increase of Eosinophils in the Rat Bronchial Alveolar Lavage Fluid (Sephadex G200 sensitization); format: in vivo, Sd male rats; settings: peroral, once a day, 10 administrations
Method: Sd male rats (8 wk old), divided in groups each consisting of five animals, were sensitized by an intravenous injection into tail vein of Sephadex G200 suspension (1 mL), that had been prepared to give a concentration of 0.75 mg/ml physiological saline. Seven days later, the same treatment was conducted; three days later, each rat was fitted with an tracheal cannula under anesthetization with pentobarbital and 7 mL of physiological saline containing 1% EDTA was injected via the cannula and recovered; this procedure was repeated three times to collect the BALF, which were centrifuged at 130×g for 10 min. Physiological saline (200 μl) containing 1% EDTA was added to the pellet to prepare a cell suspension. Part of the cell suspension was resuspended in fetal bovine serum containing 1% EDTA, smeared on a glass slide with a centrifugal smearing device and subjected to Difquick staining. Thereafter, the total WBC count and the eosinophil count were taken to determine the percentage of eosinophils in the total WBC. The total number of WBCs in the cell suspension was measured with a hemocytometer after staining with a Turck solution. Multiplying the percentage of eosinophils in the total WBC by the total number of WBCs provided the number of eosinophils in the cell suspension.
Each of the test compounds was suspended in 5% aqueous gum arabic and administered perorally to mice immediately after the initial sensitization on a once-a-day basis for a total of 10 administrations (test compound-treated group). The mice neither sensitized nor administered the test compounds (untreated group), as well as the mice that were sensitized but not administered the test compounds (control group) were similarly administered 5% aqueous gum arabic perorally.
Inhibition of the Increase of Eosinophils (%)={1-(test compound
administered group-untreated group)/(control group-untreated

Molecule O=C(O)c1ccccc1C(=O)OC1CCn2c(CCc3ccccc3)nc3cccc1c32 (centres unmarked) [Example 41, 5,6-dihydro-6-(o-carboxybenzoyloxy)-2-(2-phenylethyl)-4H-imidazo[4,5,1-ij]quinoline] has a survival at 168 h [1] of 100%.

In the case of OC1CCn2c(CCc3ccccc3)nc3cccc1c32 (centres unmarked) [Example 4, 5,6-dihydro-2-(2-phenylethyl)-4H-imidazo[4,5,1-ij]quinolin-6-ol], the “Inhibition of the Increase of Eosinophils (%)” value ([2]; 30 mg/kg/day) is reported as 67%, the “Inhibition of the Increase of Eosinophils (%)” value ([2]; 100 mg/kg/day) is reported as 57% and the “Inhibition of the Increase of Eosinophils in BALF (%)” value (eosinophils in BALF; 30 mg/kg/day) is reported as 90%. For the same molecule, the survival at 168 h [1] was 100%.

With c1ccc(CCc2nc3cccc4c3n2CCC4)cc1 [Example 13, 5,6-dihydro-2-(2-phenylethyl)-4H-imidazo[4,5,1-ij]quinoline] the “Inhibition of the Increase of Eosinophils (%)” value ([2]; 30 mg/kg/day) was 49%, the “Inhibition of the Increase of Eosinophils (%)” value ([2]; 100 mg/kg/day) was 64% and the survival at 168 h [1] was 100%.

In the case of O=C1CCn2c(CCc3ccccc3)nc3cccc1c32 [Example 1, 4,5-dihydro-2-(2-phenylethyl)-6H-imidazo[4,5,1-ij]quinolin-6-one], the “Inhibition of the Increase of Eosinophils (%)” value ([2]; 30 mg/kg/day) is reported as 48%, the “Inhibition of the Increase of Eosinophils (%)” value ([2]; 100 mg/kg/day) is reported as 68% and the “Inhibition of the Increase of Eosinophils in BALF (%)” value (eosinophils in BALF; 30 mg/kg/day) is reported as 68%. The survival at 168 h [1] was 100%.

For CON=C1CCn2c(CCc3ccccc3)nc3cccc1c32 [Example 35, 5,6-dihydro-6-methoxyimino-2-(2-phenylethyl)-4H-imidazo[4,5,1-ij]quinoline], the “Inhibition of the Increase of Eosinophils in BALF (%)” value (eosinophils in BALF; 30 mg/kg/day) was 73% and the survival at 168 h [1] was 100%.

With O=C(O)c1cccc(COC2CCn3c(CCc4ccccc4)nc4cccc2c43)c1C(=O)O (centres unmarked) [Example 64, 6-(2,3-dicarboxyphenyl)methoxy-5,6-dihydro-2-(2-phenylethyl)-4H-imidazo[4,5,1-ij]quinoline] the “Inhibition of the Increase of Eosinophils (%)” value ([2]; 30 mg/kg/day) was 57%.

In the case of OC1CCn2c(CCc3ccccc3)nc3cccc1c32 (single isomer, unassigned; (+)) [Example 11, (+)-5,6-dihydro-2-(2-phenylethyl)-4H-imidazo[4,5,1-ij]quinolin-6-ol], the “Inhibition of the Increase of Eosinophils (%)” value ([2]; 30 mg/kg/day) is reported as 43%.

In the case of O=C(O)c1ccccc1COC1CCn2c(CCc3ccccc3)nc3cccc1c32 (single isomer, unassigned; (+)) [Example 24, (+)-6-(2-carboxyphenyl)methoxy-5,6-dihydro-2-(2-phenylethyl)-4H-imidazo[4,5,1-ij]quinoline], the “Inhibition of the Increase of Eosinophils (%)” value ([2]; 30 mg/kg/day) is reported as 45%.

For Cl.NC1CCn2c(CCc3ccccc3)nc3cccc1c32 (centres unmarked) [Example 18, 5,6-dihydro-2-(2-phenylethyl)-4H-imidazo[4,5,1-ij]quinolin-6-amine hydrochloride], the “Inhibition of the Increase of Eosinophils (%)” value ([2]; 30 mg/kg/day) was 53%.

With CC(=O)OCC(=O)[C@@]1(O)CC[C@H]2[C@@H]3CCC4=CC(=O)C=C[C@]4(C)[C@H]3[C@@H](O)C[C@@]21C [Prednisolone Acetate, 11β, 17α, 21-trihydroxypregna-1,4-diene-3,20-dione 21-acetate, reference compound] the “Inhibition of the Increase of Eosinophils (%)” value ([2]; 10 mg/kg/day) was 65% and the “Inhibition of the Increase of Eosinophils in BALF (%)” value (eosinophils in BALF; 10 mg/kg/day) was 76% and 69%.
